# Measured values taken from US20120308554A1, “VEGF-D/VEGFR2/3-MEDIATED REGULATION OF DENDRITES” (UNIVERSITAT HEIDELBERG, priority 2011, published 2012).
# Experiments:
# [1] = tested on: cultured hippocampal neurons; test: Whole-cell patch clamp recordings of cultured hippocampal neurons; assay type: cell-based, mice
# Excerpt: Whole-cell patch clamp recordings were made at room temperature from cultured hippocampal neurons plated on coverslips secured with a platinum ring in a recording chamber (Open access chamber-1, Science Products GmbH, Hofheim, Germany) mounted on a fixed-stage upright microscope (BX51WI, Olympus, Hamburg, Germany). Differential interference contrast optics, infrared illumination and a CCD camera (PCO, Visitron Systems, Puchheim, Germany) connected to a contrast enhancement unit (Argus, Hamamatsu, Herrsching am Ammersee, Germany) were used to view neurons on a video monitor. Recordings were made with a Multiclamp 700A amplifier, digitized through a Digidata 1322A A/D converter and acquired using pClamp software (Molecular Devices, CA, USA). All membrane potentials have been corrected for the calculated junction potential of −11 mV (JPCalc program by Dr. Peter H. Barry). mEPSCs and whole-cell AMPA (10 μM, 6 ml/min, Biotrend) responses were recorded as known in the art except for the solutions and that a holding potential of −71 mV was used and both TTX (1 μM, Biotrend, Cologne, Germany) and gabazine (5 μM, Biotrend) were included in the ACSF. TTX was applied before gabazine to prevent the induction of action potential bursting. Access (range: 7-18 MU) and membrane resistance (see Table 1) were monitored before and after mEPSC recordings and data was rejected if changes greater than 20% occurred.
# Patch electrodes (3-4 MU) were made from borosilicate glass (1.5 mm, WPI, Sarasota, Fla., USA) and filled with intracellular solution (containing in mM: KCH3SO4, 145; NaCl, 8; HEPES, 10; K2-phosphocreatine, 10; Mgt-ATP, 4; Na3-GTP, 0.3; pH 7.35 with KOH). The extracellular solution was an artificial cerebrospinal fluid (ACSF, in mM: NaCl, 125; KCl, 3.5; MgCl2, 1.3; NaH2PO4, 1.2; CaCl2, 2.4; glucose, 25; NaHCO3, 26; gassed with 95% O2 and 5% CO2).
# [2] = tested on: hippocampal neurons; assay type: cell-based, mice; settings: hippocampal neurons infected with rAAV
# Excerpt: E: Analysis of apoptosis of hippocampal cultures uninfected or infected with the indicated rAAVs. Values are expressed as percentage of the total number of cells analyzed.
# [3] = tested on: C57BL/6 mice; test: Morris water maze; assay type: in vivo
# Description: (§1) rAAVs were delivered by stereotaxic injection into the right dorsal hippocampus of 2 months old male C57BL/6 mice. For the Golgi staining-based morphometric analysis, viral particles were unilaterally injected over a period of 20 min at the following coordinates relative to Bregma: anteroposterior, −2.1 mm; mediolateral, −1.4 mm; dorsoventral, −1.4 to −1.8 mm from the skull surface. For behavior experiments mice were injected bilaterally.
# (§2) The behavioral experiments started three weeks after stereotaxic delivery of rAAVs. Mice were habituated to the experimental room and handled once a day for three consecutive days before testing started. Two different sets of mice were used for Morris water maze and contextual fear conditioning experiments. At the end of the experiments, virus infection was assessed.
# Mice were first tested in the hidden-platform version and next in the visible-platform version of the water maze. The water maze consisted of a circular pool (120 cm diameter) filled with opaque water (water was made opaque with non-toxic white paint). The platform (10 cm diameter) was submerged 1 cm below the water level. On the first day of the hidden-platform version, mice were habituated to the water and the platform for two 60 seconds trials. In each habituation trial, mice were allowed to swim for 30 seconds and then placed on the platform for another 30 seconds. During the acquisition phase, mice were placed four times a day into a pool with a submerged platform located in a fixed position (approximately 5 minutes inter-trial interval) for four days. […] On the fifth day, mice were given a 60 second probe trial, for which the platform was not in the pool. This was followed by four more days of training. A second probe trial was given on the tenth day. In the visible-platform version, mice were trained to find the platform using a proximal visible cue (red ball placed 10 cm above the platform). […] The path of the mouse was recorded using a video tracking system (ANY-Maze, Stoelting, Ireland).
# [4] = tested on: C57BL/6 mice; test: Contextual fear conditioning; assay type: in vivo; settings: versus rAAV-shSCR
# Description: as §1, §2
# On the training day, mice were placed into the conditioning chamber (23×23×35 cm; TSE, Bad Homburg, Germany) and received a 2 second, 0.5 mA scrambled foot shock 148 seconds after placement into the chamber. Mice were removed from the chamber 30 seconds after the shock. During testing, mice received one 5 minute exposure to the same context in the absence of foot shock 24 hours after conditioning. Freezing, defined as absence of movement except for respiration, was scored continuously during training and testing sessions.
substance,measurement,setting,value
"shVEGFD: shRNA targeting mouse VEGFD mRNA (GGGCTTCAGGAGCGAACAT; SEQ ID NO: 1), expressed from rAAV vector or plasmid with U6 promoter",AMPA response amplitudes,[1]; bath applied AMPA 10 μM,smaller
same,AP induc thresh (current injection required to induce an action potential),[1]; infected neurons,162 ± 14 pA
same,AP thresh (membrane potential at which action potentials initiate),[1]; infected neurons,−46.5 ± 1.1 mV
same,Cm (membrane capacitance),[1]; infected neurons,68.3 ± 3.3 pF
same,Rm (membrane resistance),[1]; infected neurons,316 ± 19 MΩ
same,Vrest (resting membrane potential),[1]; infected neurons,−82.9 ± 1.9 mV
same,mEPSC τ decay,[1]; infected neurons,4.14 ± 0.15 ms
same,mEPSC τ rise,[1]; infected neurons,2.91 ± 0.10 ms
same,AP induc thresh (current injection required to induce an action potential),[1]; transfected neurons,149 ± 14 pA
same,AP thresh (membrane potential at which action potentials initiate),[1]; transfected neurons,−45.6 ± 1.6 mV
same,Cm (membrane capacitance),[1]; transfected neurons,59.7 ± 3.8 pF
same,Rm (membrane resistance),[1]; transfected neurons,352 ± 29 MΩ
same,Vrest (resting membrane potential),[1]; transfected neurons,−79.7 ± 2.0 mV
same,mEPSC τ decay,[1]; transfected neurons,3.82 ± 0.26 ms
same,mEPSC τ rise,[1]; transfected neurons,2.82 ± 0.23 ms
same,"mEPSC inter-event intervals (IEIs, 1/frequency)",[1]; versus respective shSCR expressing controls,longer mEPSC inter-event intervals
same,cell death,[2],no increase in cell death
same,Swimming speed,"[3]; hidden-platform acquisition, versus rAAV-shSCR",not different between the two groups
same,"time to find hidden platform (escape latency), effect of treatment","[3]; hidden-platform version, versus rAAV-shSCR",no effect of treatment was observed
same,time spent in quadrants during probe trial,"[3]; probe trial, 60 sec",spent similar amounts of time in the different quadrants
same,basal exploratory activity and reaction to shock during training,[4],not different between the two groups
same,freezing during the 24-hour test session,[4],significantly lower levels of freezing
